According to patent US20030176494A1, “Novel coumarin and chromene compounds and methods of preparation and use thereof for treating or preventing viral infections” (priority 2001, published 2003):
≈ marks a conversion by molar mass, not a printed value. Where two headings read alike, the source gives them in different places.

Tests used:
VZV = VZV plaque reduction assay in human foreskin fibroblast cells; assay type: cell-based, Varicella Zoster Virus (Ellen strain); conditions: Human alphaherpesvirus 3, Fibroblast; read-out: Antiviral Activities (EC50) VZV
Protocol: [table] Two days prior to use, HFF cells are plated into six-well plates and incubated at 37° C. with 5% CO2 and 90% humidity. On the date of assay, the drug is made up at twice the desired concentration in 2×MEM and then serially diluted 1:5 in 2×MEM using six concentrations of drug. […] The media is then aspirated from the wells and 0.2 mL of virus is added to each well in duplicate with 0.2 mL of media being added to drug toxicity wells. The plates are then incubated for one hour with shaking every fifteen minutes. […] The drug agarose mixture is applied to each well in 2 mL volume and the plates then incubated for three days, after which the cells were stained with a 1.5% solution of neutral red. At the end of 4-6 hr incubation period, the stain is aspirated, and plaques counted using a stereomicroscope at 10× magnification. The procedure is essentially the same as for the HSV plaque assay described above with two exceptions: 1. After addition of the drug, the plates are incubated for ten days. 2.

Measles Virus = test: Measles virus antiviral assay (CPE inhibition, neutral red uptake, virus yield); assay type: cell-based, Measles virus strain CC; conditions: Measles morbillivirus
EBV = EBV assay: superinfection of Raji or Daudi cells with P3HR-1, immunofluorescence for EA and VCA; assay type: cell-based, Epstein-Barr Virus (P3HR-1); conditions: human gammaherpesvirus 4; read-out: Antiviral Activities (EC50) EBV
Source text: There are two prototypes of infectious EBV. One is exemplified by the virus derived from supernatant fluids of the P3HR-1cell line. This cell line produces nontransforming virus that causes the production of early antigen (EA) after primary infection or superinfection of B cell lines. The other prototype is exemplified by the B-95-8 virus. This virus immortalized cord blood lymphocytes and induced tumors in marmosets. […] The virus used in our assays is P3HR-1.
Ramos is an exceptional B cell line derived from Burkitt's lymphoma tumor but containing no detectable EBV genome copies and is EBNA negative. Ramos/AW was obtained by in vitro infection of Ramos with the P3HR-1 virus and contains one resident EBV genome copy/cell. Raji is a Burkitt's lymphoma cell line containing 60 EBV genomes/cell, and will be the primary cell used for screening antiviral activity against EBV EA expression. Daudi is a low level producer that contains 152 EBV genome copies/cell. It spontaneously expresses EBV EA in 0.25%-0.5% of the cells. It will be used in follow-up studies to confirm activity. These cell lines respond to superinfection by EBV by expressing EA(D), EA(R), and VCA. All cell lines are maintained in RPMI-1640 medium supplemented by 10% FCS, L-glutamine and 100 μg/mL gentamicin. The cultures are fed twice weekly and the cell concentration adjusted to 3×10^5/mL. The cells are kept at 37° C. in a humidified atmosphere with 5% CO2.
Cells are infected with the P3HR-1 strain of EBV and the drugs to be tested are added after adsorption (45 minutes at 37° C.) and washing of the cell cultures. The cultures are incubated for two days in complete medium to allow viral gene expression. Following the 48 hr incubation period, the number of cells of each sample are counted and smears made. Monoclonal antibodies to the different EA components and VCA are then added to the cells incubated and washed. This is followed by a fluorescein conjugated rabbit anti-mouse Ig antibody; and the number of fluorescence positive cells in the smears are counted. The total number of cells in the cultures positive for EA or VCA are then calculated and compared.

Rhinovirus = Rhinovirus antiviral assay (CPE inhibition, neutral red uptake, virus yield); assay type: cell-based; conditions: Enterovirus
[1] = tested on: Respiratory Syncytial Virus; test: Respiratory syncytial virus antiviral assay (CPE inhibition, neutral red uptake); assay type: cell-based, Respiratory syncytial virus strain Utah 89; conditions: human respiratory syncytial virus
HBV = HBV replication in cultures of 2.2.15 cells (HBV DNA blot hybridization); assay type: cell-based; conditions: Hepatitis B virus; read-out: Antiviral Activities (EC50) HBV
Protocol: Test compounds are then added daily for a continuous 9 day period. Culture medium (changed daily during the treatment period) is collected and stored for analysis of extracellular (virion) HBV DNA after 0, 3, 6, and 9 days of treatment. Treated cells are lysed 24 hours following day 9 of treatment for the analysis of intracellular HBV genomic forms. HBV DVA is then analyzed in a quantitative and qualitative manner for overall levels of HBV DNA (both extracellular and intracellular DNA) and the relative rate of HBV replication (intracellular DNA).
Both intracellular and extracellular HBV DNA are analyzed in order to (i) allow for verification of compound efficacy and (ii) provide possible data on the target site in the HBV replication pathway for the compound from examination of the pattern of viral replicative forms. The culture medium is changed daily during the treatment period to (i) prevent the buildup of potentially toxic metabolites derived from test compounds and (ii) provide an analysis of HBV virion production during discrete 24-hour intervals which enables a quantitative comparison of any effect on virion production.
The analysis of HBV DNA is performed using blot hybridization techniques (Southern and slot blot) and [^32P]-labeled HBV-specific probes. HBV DNA levels are measured by comparison to known amounts of HBV DNA standards applied to every nitrocellulose membrane (gel or slot blot). An AMBIS beta scanner, which measures the radioactive decay of the hybridized probes directly from the nitrocellulose membranes, is used for the quantitative analysis. Standard curves, generated by multiple analyses, are used to correlate CPM measurements made by the beta scanner with relative levels of target HBV DNA. The levels of HBV virion DNA released into the culture medium are analyzed by a slot blot hybridization procedure. HBV DNA levels are then compared to those at Day 0 to determine the effect of drug treatment.
The levels of RI and episomal monomers are used as an indicator of the relative level of HBV replication. Integrated HBV DNA is used to normalize the relative amounts of DNA in each lane because the levels of this class of HBV DNA would be expected to remain constant on a per cell basis. […] Inhibition of HBV DNA replication is indicated by the loss of RI without changes in the level of integrated HBV DNA.

HIV = test: Anti-HIV evaluation by MTT-tetrazolium method (inhibition of CPE in MT-2 / CEM-SS cells); assay type: cell-based; conditions: Human immunodeficiency virus 1, CEM-SS; read-out: Antiviral Activities (EC50) HIV
Protocol: This example illustrates the anti-HIV activity of various coumarin and chromene compounds which were evaluated using the published MTT-tetrazolium methods^8. Retroviral agents AZT and DDC were used as controls for comparison purposes.
The cells used for screening were the MT-2 and the human T4-lymphoblastoid cell line, CEM-SS, and were grown in RPMI 1640 medium supplemented with 10% fetal (v/v) heat-inactivated fetal calf serum and also containing 100 units/mL penicillin, 100 μg/mL streptomycin, 25 mM HEPES and 20 μg/mL gentamicin. The medium used for dilution of drugs and maintenance of cultures during the assay was the same as above. The HTLV-IIIB and HTLV-RF were propagated in CEM-SS. The appropriate amounts of the pure compounds for anti-HIV evaluations were dissolved in DMSO, then diluted in medium to the desired initial concentration. The concentrations (M medium) employed were […]; 0.001 μM; 0.0032 μM; 0.01 μM; 0.032 μM; 0.1 μM; 0.32 μM; 1 μM; 3.2 μM; 10 μM; 32 μM; and 100 μM. Each dilution was added to plates in the amount of 100 μL/well. Drugs were tested in triplicate wells per dilution with infected cells while in duplicate wells per dilution with uninfected cells for evaluation of cytotoxicity. On day 6 (CEM-SS cells) and day 7 (MT-2 cells) post-infection, the viable cells were measured with a tetrazolium salt, MTT (5 mg/mL), added to the test plates. A solution of 20% SDS in 0.001 N HCl is used to dissolve the MTT formazan produced. The optical density value was a function of the amount of formazan produced which was proportional to the number of viable cells. The percent inhibition of CPE per drug concentration was measured as a test over control and expressed in percent (T/C %).

[2] = CPE inhibition, read-out: Antiviral Activities (EC50) Measles (CPE)
[3] = neutral red (NR) dye uptake, read-out: Antiviral Activities (EC50) Measles (NR)
[4] = CPE inhibition, read-out: Antiviral Activities (EC50) Rhinovirus (CPE)
[5] = neutral red (NR) dye uptake, read-out: Antiviral Activities (EC50) Rhinovirus (NR)
[6] = CPE inhibition, read-out: Antiviral Activities (EC50) Respiratory Syncitial (CPE)
[7] = neutral red (NR) dye uptake, read-out: Antiviral Activities (EC50) Respiratory Syncitial (NR)
[8] = readout not stated, read-out: Antiviral Activities (EC50) Respiratory Syncitial

SMILES | EC50 (VZV) [µg/mL] | EC50 (Measles Virus; [2]) [µg/mL] | EC50 (Measles Virus; [3]) [µg/mL] | EC50 (EBV) [µg/mL] | EC50 (Rhinovirus; [4]) [µg/mL] | EC50 (Rhinovirus; [5]) [µg/mL] | EC50 [1, 6] [µg/mL] | EC50 [1, 7] [µg/mL] | EC50 (HBV) [µg/mL] | EC50 (Measles Virus; read-out: Antiviral Activities (EC50) Measles (virus yield)) [µg/mL] | EC50 (HIV) [µg/mL] | EC50 [1, 8] [µg/mL]
CCCc1cc(=O)oc2c(C(=O)CC)c(O)cc(O)c12 | > 0.8 | 10 (≈ 36.2 µM) | > 100 | 0.33 (≈ 1.19 µM) | 30 (≈ 109 µM) | 28 (≈ 101 µM) | 2 (≈ 7.24 µM) | 4 (≈ 14.5 µM) | > 3 | – | – | –
CCCc1cc(=O)oc2cc(OC(=O)C(C)(C)C)cc(O)c12 [drawing 26] | 83 (≈ 273 µM) | – | – | 1.1 (≈ 3.61 µM) | – | – | – | – | > 3 | – | – | –
CCCc1cc(=O)oc2cc(OC(=O)CC)c3c(c12)OC(C)(C)C=C3 | > 4 | 0.4 (≈ 1.17 µM) | 0.3 (≈ 0.876 µM) | – | – | – | – | – | > 10 | 0.32 (≈ 0.935 µM) | > 2 | 1 (≈ 2.92 µM)
CCCc1cc(=O)oc2cc(O)c3c(c12)OC(C)(C)C=C3 | 89 (≈ 311 µM) | 0.5 (≈ 1.75 µM) | 0.6 (≈ 2.1 µM) | > 50 | – | – | – | – | > 10 | – | – | 1 (≈ 3.49 µM)
CCCc1cc(=O)oc2cc(O)c(C(=O)CC)c(O)c12 | > 4 | 3 (≈ 10.9 µM) | 0.4 (≈ 1.45 µM) | 8.5 (≈ 30.8 µM) | 2 (≈ 7.24 µM) | 5 (≈ 18.1 µM) | – | – | 1 (≈ 3.62 µM) | – | > 5 | –
CCCc1cc(=O)oc2cc(O[C@H](C)[C@@H](C)CO[Si](C)(C)C(C)(C)C)c3c(c12)OC(C)(C)C=C3 | – | – | – | – | – | – | – | – | – | – | 7.2 (≈ 14.8 µM) | –
CCCc1cc(=O)oc2cc(O[C@H](C)[C@@H](C)CO)c3c(c12)OC(C)(C)C=C3 | – | – | – | – | – | – | – | – | – | – | > 2 | –
CCCc1cc(=O)oc2c(C(=O)C(C)(O)C(C)O)c(O)c3c(c12)OC(C)(C)C=C3 (stereo not shown) | 19.9 (≈ 49.4 µM) | 20 (≈ 49.7 µM) | 40 (≈ 99.4 µM) | – | 0.5 (≈ 1.24 µM) | 1 (≈ 2.48 µM) | 50 (≈ 124 µM) | 40 (≈ 99.4 µM) | > 4 | – | > 24 | –
CCCc1cc(=O)oc2cc(OC(=O)C(C)(C)C)c3c(c12)OC(C)(C)C=C3 | > 100 | 0.2 (≈ 0.54 µM) | 0.6 (≈ 1.62 µM) | 0.39 (≈ 1.05 µM) | – | – | – | – | > 10 | – | > 7 | –
CCCc1cc(=O)oc2c(C(=O)CC)c(O)c3c(c12)OC(C)(C)C=C3 | 16.1 (≈ 47 µM) | 20 (≈ 58.4 µM) | > 100 | 27 (≈ 78.9 µM) | – | – | 20 (≈ 58.4 µM) | 40 (≈ 117 µM) | > 3 | – | > 68 | –
